Columns and labels:
Acetylcholinesterase [1] = molecular target: T1, Acetylcholinesterase (Homo sapiens, UniProt P22303); experiment: Inhibition of AChE at 1000 uM by microplate assay
Acetylcholinesterase [2] = molecular target: T1, Acetylcholinesterase; experiment: Inhibition of AChE by microplate assay
Rattus norvegicus [3] = experiment: Increase in extracellular acetylcholine in urethane anesthetized Sprague-Dawley rat nucleus accumbens; type: functional
Rattus norvegicus [4] = experiment: Increase in extracellular acetylcholine in urethane anesthetized Sprague-Dawley rat nucleus accumbens at 2 umol relative to basal release; type: functional
Rattus norvegicus [5] = experiment: Increase in extracellular acetylcholine at 2 uM in urethane anesthetized Sprague-Dawley rat nucleus accumbens; type: functional
Rattus norvegicus [6] = experiment: Increase in extracellular acetylcholine at 1 uM in urethane anesthetized Sprague-Dawley rat nucleus accumbens; type: functional

T1 sequence (P22303 whole entry): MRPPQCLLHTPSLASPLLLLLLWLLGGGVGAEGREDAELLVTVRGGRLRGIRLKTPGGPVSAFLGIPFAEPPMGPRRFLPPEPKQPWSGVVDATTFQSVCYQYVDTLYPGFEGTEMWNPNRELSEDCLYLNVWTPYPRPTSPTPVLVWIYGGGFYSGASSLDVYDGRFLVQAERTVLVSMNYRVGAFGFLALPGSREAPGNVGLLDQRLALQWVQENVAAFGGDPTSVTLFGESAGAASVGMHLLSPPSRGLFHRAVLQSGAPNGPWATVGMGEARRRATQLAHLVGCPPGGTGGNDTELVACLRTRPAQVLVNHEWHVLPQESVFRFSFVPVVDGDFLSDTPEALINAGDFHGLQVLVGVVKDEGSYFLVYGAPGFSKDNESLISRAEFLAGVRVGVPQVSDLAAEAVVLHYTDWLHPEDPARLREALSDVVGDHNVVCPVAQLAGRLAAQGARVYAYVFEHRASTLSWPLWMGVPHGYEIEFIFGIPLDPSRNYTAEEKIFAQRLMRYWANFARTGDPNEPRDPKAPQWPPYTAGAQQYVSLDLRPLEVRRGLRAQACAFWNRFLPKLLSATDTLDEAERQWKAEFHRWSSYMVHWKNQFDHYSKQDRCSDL

Structure (SMILES) | inhibition (Acetylcholinesterase [1]) | Activity (Acetylcholinesterase [2]) | Activity (Rattus norvegicus [3]) | Activity (Rattus norvegicus [4]) | Activity (Rattus norvegicus [5]) | Activity (Rattus norvegicus [6]) | IC50 (Acetylcholinesterase [2])
COc1cc2ccc(=O)oc2cc1O[C@@H]1O[C@H](CO)[C@@H](O)[C@H](O)[C@H]1O [SCOPOLIN] | 30.1% | Dose-dependent effect | 3.18 | 300% | – | – | –
COc1ccc2c3c1O[C@H]1C[C@@H](O)C=C[C@@]31CCN(C)C2 [GALANTAMINE] | – | – | – | – | 1.68 | 1.78 | –
COc1cc2ccc(=O)oc2cc1O [SCOPOLETIN] | – | – | 1.74 | 170% | – | – | 169 µM

From ChEMBL document CHEMBL1149251, “Acetylcholinesterase inhibitory activity of scopolin and scopoletin discovered by virtual screening of natural products” (J Med Chem, 2004)
